Assay results as given in ChEMBL document CHEMBL6120962, “New Mitochondria-Targeted Fisetin Derivative Compromises Mitophagy and Limits Survival of Drug-Induced Senescent Breast Cancer Cells” (J Med Chem, 2024).
Calls of active or inactive are those of the source.

Key:
Mitochondrial membrane [1] = experiment: Induction of mitochondrial membrane potential depolarization in human HCC1500 cells at 1 uM incubated for 24 hrs by 7-AAD staining based flow cytometric analysis; type: cell membranes
Mitochondrial membrane [2] = experiment: Induction of mitochondrial membrane potential depolarization in tamoxifen-induced senescent human HCC1500 cells assessed as increase in depolarized dead cell level at 1 to 5 uM incubated for 24 hrs by 7-AAD staining based flow cytometric analysis; type: cell membranes; details: dose 1-5 µM
HCC1428 [3] = experiment: Induction of mitochondrial dysfunction in tamoxifen-induced senescent human HCC1428 cells assessed as decrease in coupling efficiency respiration at 5 uM incubated for 6 hrs by real-time analysis; type: functional, cell-based
HCC1428 [4] = experiment: Induction of mitochondrial dysfunction in tamoxifen-induced senescent human HCC1428 cells assessed as increase in proton leak at 5 uM incubated for 6 hrs by real-time analysis; type: functional, cell-based
HCC1428 [5] = experiment: Induction of autophagy in tamoxifen-induced senescent human HCC1428 cells assessed as increase in VPS34 level at 1 to 5 uM by immunostaining based imaging cytometric analysis; type: functional, cell-based; details: dose 1-5 µM
ZR-75-30 = experiment: Induction of oxidative stress in tamoxifen-induced senescent human ZR-75-30 cells assessed as increase in mitochondrial SOD2 level at 1 to 5 uM incubated for 24 hrs by MitoSOX red superoxide indicator based fluorescence analysis; type: functional, cell-based; details: dose 1-5 µM
HCC1428 [6] = experiment: Induction of […] in human tamoxifen-induced senescent human HCC1428 cells at 1 to 5 uM incubated for 24 hrs by Annexin V-FITC staining based flow cytometric analysis; type: functional, cell-based; details: dose 1-5 µM
HCC1428 [7] = experiment: Induction of apoptosis in human HCC1428 cells assessed as decrease in Bcl2 level at 1 to 5 uM incubated for 24 hrs by Western blot analysis; type: functional, cell-based; details: dose 1-5 µM
HCC1500 [8] = experiment: Induction of apoptosis in human HCC1500 cells assessed as decrease in Bcl2 level at 1 to 5 uM incubated for 24 hrs by Western blot analysis; type: functional, cell-based; details: dose 1-5 µM
HCC1428 [9] = experiment: Induction of apoptosis in tamoxifen-induced senescent human HCC1428 cells assessed as decrease in phosphorylated AKT level at 1 to 5 uM incubated for 24 hrs by Western blotting analysis; type: functional, cell-based; details: dose 1-5 µM
HCC1500 [10] = experiment: Induction of senescence in human HCC1500 cells assessed as […] in beta-galactosidase activity at 5 uM incubated for 24 hrs by immunostaining based imaging cytometric analysis; type: functional, cell-based
CAMA-1 = experiment: Induction of senescence in human CAMA-1 cells assessed as […] in beta-galactosidase activity at 5 uM incubated for 24 hrs by immunostaining based imaging cytometric analysis; type: functional, cell-based
T47D = experiment: Antitumor activity against ER-positive human T47D cells xenografted in Danio rerio embryo assessed as increase in p21 mRNA level at 1 to 5 uM administered for 48 hrs by RT-PCR analysis; type: functional, cell-based; details: dose 1-5 µM

Measured: Activity

CC(=O)Oc1ccc2c(=O)c(OCCCC[P+](c3ccccc3)(c3ccccc3)c3ccccc3)c(-c3ccc4c(c3)OC(c3ccccc3)(c3ccccc3)O4)oc2c1.[I-]
active: all assays above
